Test results from ChEMBL document CHEMBL1909046, “DrugMatrix in vitro pharmacology data”.

How the values were obtained:
[1] = biological target: T1, Cysteinyl leukotriene receptor 1 (Homo sapiens, UniProt Q9Y271); assay type: cell membranes, CHO-K1, Membrane; details: cho-k1; also: in other assays of this panel Not Active means under 50% inhibition at 10 µM
T1 sequence (Q9Y271 whole entry): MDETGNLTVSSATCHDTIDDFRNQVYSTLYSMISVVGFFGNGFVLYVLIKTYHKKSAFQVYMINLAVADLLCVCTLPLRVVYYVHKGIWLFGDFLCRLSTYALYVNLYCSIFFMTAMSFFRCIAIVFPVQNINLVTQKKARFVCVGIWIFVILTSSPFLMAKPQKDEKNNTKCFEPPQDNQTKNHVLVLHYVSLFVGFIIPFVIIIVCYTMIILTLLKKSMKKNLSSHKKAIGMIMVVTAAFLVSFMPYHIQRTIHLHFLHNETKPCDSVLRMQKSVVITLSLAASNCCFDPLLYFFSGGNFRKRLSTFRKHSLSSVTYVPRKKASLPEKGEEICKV

[2] = biological target: cGMP-specific 3',5'-cyclic phosphodiesterase (Homo sapiens, UniProt O76074); assay: DRUGMATRIX: Phosphodiesterase PDE5 enzyme inhibition (substrate: [3H]cGMP + cGMP); assay type: tissue-based; details: platelet; Not Active = under 50% inhibition at 10 µM
Acetylcholinesterase = Acetylcholinesterase (Homo sapiens, UniProt P22303); assay: DRUGMATRIX: Acetylcholinesterase enzyme inhibition (substrate: acetylthiocholine); assay type: cell-based, HEK293; details: hek293; Not Active = under 50% inhibition at 10 µM
[3] = DRUGMATRIX: Glutamate, NMDA, Agonism radioligand binding (ligand: [3H] CGP-39653); assay type: cell membranes, Rattus norvegicus, Wistar, Cerebral cortex, Membrane; details: Not Active = under 50% inhibition at 10 µM
[4] = DRUGMATRIX: Interleukin IL-1 radioligand binding (ligand: [125I] interleukin 1beta); assay type: cell membranes, Membrane; details: nih3t3; Not Active = under 50% inhibition at 10 µM
Endothelin-1 receptor = biological target: T2, Endothelin-1 receptor (Homo sapiens, UniProt P25101); assay type: cell membranes, CHO-K1, Membrane; details: cho-k1; also: in other assays of this panel Not Active means under 50% inhibition at 10 µM
T2 sequence (P25101 whole entry): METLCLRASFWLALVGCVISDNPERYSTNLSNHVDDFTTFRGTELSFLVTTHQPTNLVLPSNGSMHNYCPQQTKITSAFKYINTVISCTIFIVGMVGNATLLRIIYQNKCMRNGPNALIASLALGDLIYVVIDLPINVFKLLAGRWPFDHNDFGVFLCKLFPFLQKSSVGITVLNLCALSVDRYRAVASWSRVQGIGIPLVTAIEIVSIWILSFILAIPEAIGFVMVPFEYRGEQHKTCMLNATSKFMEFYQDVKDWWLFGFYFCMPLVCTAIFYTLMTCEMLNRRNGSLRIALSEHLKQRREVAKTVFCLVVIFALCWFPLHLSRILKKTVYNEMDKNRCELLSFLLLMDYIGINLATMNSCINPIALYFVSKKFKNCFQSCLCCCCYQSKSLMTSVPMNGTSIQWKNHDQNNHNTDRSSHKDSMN

Adenosine receptor A1 = biological target: T3, Adenosine receptor A1 (Homo sapiens, UniProt P30542); assay type: cell membranes, CHO, Membrane; details: cho;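 also: radioligand binding assay at the adenosine A1 receptor, with DPCPX serving as the labelled ligand; in other assays of this panel Not Active means under 50% inhibition at 10 µM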
T3 sequence (P30542 whole entry): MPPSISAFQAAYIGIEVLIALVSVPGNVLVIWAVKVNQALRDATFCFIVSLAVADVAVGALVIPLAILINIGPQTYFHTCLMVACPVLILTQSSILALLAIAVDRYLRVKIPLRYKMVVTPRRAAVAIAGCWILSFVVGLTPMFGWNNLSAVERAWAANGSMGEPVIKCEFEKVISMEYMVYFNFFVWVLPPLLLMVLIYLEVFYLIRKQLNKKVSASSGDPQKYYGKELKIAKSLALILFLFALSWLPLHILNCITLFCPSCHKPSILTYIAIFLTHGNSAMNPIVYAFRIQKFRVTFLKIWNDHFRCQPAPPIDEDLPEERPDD

[5] = DRUGMATRIX: Glutamate, Kainate radioligand binding (ligand: [3H] Kainic acid); assay type: cell membranes, Rattus norvegicus, Wistar, Brain, Membrane; details: Not Active = under 50% inhibition at 10 µM
[6] = biological target: T4, 3-hydroxy-3-methylglutaryl-coenzyme A reductase (Homo sapiens, UniProt P04035); parameters: species or system Escherichia coli;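 also: enzyme inhibition assay of HMG-CoA reductase using radiolabeled [14C]HMG-CoA as substrate; in other assays of this panel Not Active means under 50% inhibition at 10 µM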
T4 sequence (P04035 whole entry): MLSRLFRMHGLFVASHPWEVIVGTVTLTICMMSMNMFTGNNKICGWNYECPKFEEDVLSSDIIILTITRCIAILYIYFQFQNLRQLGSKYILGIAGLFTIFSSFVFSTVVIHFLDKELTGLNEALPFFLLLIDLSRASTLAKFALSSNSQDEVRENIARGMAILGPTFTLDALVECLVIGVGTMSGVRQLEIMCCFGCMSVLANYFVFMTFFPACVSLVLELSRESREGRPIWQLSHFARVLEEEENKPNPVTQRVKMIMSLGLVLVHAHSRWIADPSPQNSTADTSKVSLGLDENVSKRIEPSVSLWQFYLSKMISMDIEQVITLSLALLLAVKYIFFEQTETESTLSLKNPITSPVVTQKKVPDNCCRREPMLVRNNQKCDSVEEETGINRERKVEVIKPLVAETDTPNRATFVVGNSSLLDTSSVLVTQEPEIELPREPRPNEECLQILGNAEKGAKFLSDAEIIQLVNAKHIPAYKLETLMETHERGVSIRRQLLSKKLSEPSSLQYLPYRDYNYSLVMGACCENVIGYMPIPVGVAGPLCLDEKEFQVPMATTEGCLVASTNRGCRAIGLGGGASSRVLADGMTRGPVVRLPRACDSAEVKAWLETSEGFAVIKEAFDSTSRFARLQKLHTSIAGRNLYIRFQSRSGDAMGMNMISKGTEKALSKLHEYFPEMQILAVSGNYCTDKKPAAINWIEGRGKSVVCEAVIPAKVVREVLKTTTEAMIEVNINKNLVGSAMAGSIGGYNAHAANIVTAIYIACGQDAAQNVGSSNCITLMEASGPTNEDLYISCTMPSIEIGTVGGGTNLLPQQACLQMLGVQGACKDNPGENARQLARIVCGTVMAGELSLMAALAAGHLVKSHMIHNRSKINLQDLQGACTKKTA

Acetylcholinesterase, sequence (P22303 whole entry): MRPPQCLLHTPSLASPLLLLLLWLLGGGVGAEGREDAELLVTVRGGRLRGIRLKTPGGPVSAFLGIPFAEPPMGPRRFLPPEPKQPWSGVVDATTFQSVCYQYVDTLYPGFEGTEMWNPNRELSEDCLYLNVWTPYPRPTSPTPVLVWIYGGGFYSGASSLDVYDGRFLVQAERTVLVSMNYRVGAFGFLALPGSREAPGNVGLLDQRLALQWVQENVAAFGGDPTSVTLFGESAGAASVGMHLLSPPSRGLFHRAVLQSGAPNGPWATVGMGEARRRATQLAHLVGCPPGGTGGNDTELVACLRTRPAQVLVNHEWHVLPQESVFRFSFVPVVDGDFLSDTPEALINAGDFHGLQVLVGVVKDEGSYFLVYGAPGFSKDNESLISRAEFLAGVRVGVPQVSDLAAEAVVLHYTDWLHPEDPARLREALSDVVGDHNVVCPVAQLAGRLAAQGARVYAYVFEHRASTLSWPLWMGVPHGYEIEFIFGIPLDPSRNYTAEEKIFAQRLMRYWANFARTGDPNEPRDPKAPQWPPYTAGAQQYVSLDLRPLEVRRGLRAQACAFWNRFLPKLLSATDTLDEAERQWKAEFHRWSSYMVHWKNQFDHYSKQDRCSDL

CC[C@@]1(O)C[C@H](O[C@H]2C[C@H](N(C)C)[C@H](O[C@H]3C[C@H](O)[C@H](O[C@H]4CCC(=O)[C@H](C)O4)[C@H](C)O3)[C@H](C)O2)c2c(cc3c(c2O)C(=O)c2c(O)cccc2C3=O)[C@H]1C(=O)OC [ACLARUBICIN]
Not Active: IC50 [1] | IC50 [2] | IC50 (Acetylcholinesterase) | IC50 [3] | Ki [3] | IC50 [4] | Ki [4] | IC50 (Endothelin-1 receptor) | IC50 (Adenosine receptor A1) | IC50 [5] | Ki [5] | IC50 [6]

Nc1nc2c(ncn2CCC(CO)CO)c(=O)[nH]1 [PENCICLOVIR]
Not Active: IC50 [1] | IC50 [2] | IC50 (Acetylcholinesterase) | IC50 [3] | Ki [3] | IC50 [4] | Ki [4] | IC50 (Endothelin-1 receptor) | IC50 (Adenosine receptor A1) | IC50 [5] | Ki [5] | IC50 [6]

O=c1oc2ccccc2c(O)c1Cc1c(O)c2ccccc2oc1=O [DICUMAROL]
Not Active: IC50 [1] | IC50 [2] | IC50 (Acetylcholinesterase) | IC50 [3] | Ki [3] | IC50 [4] | Ki [4] | IC50 (Endothelin-1 receptor) | IC50 (Adenosine receptor A1) | IC50 [5] | Ki [5] | IC50 [6]
